Patent US11007167B2, “Methods of treating multiple sclerosis” (Biogen MA Inc., priority 2014, dated 2021)
Entries after “also recorded” stand apart in the source; their conditions may differ. Structures can show the parent of a compound that is named as a salt.

Key:
JCV = conditions: literature report; cited from earlier work
patient with MS = assay: Occurrence of progressive multifocal leukoencephalopathy (PML) in treated MS patients; conditions: prolonged lymphopenia
MS patients [1] = assay: Absolute lymphocyte count (ALC) profiles in DMF-treated MS patients (Phase 2b, DEFINE, CONFIRM, ENDORSE); assay type: in vivo, human
Protocol: (§1) The Phase 2b study, DEFINE, and CONFIRM were multicenter, randomized, double-blind, placebo-controlled, parallel-group clinical trials of DMF as monotherapy for RRMS.
The Phase 2b study was 12 months in duration, including a 6-month placebo-controlled part (Part 1) and a 6-month uncontrolled safety extension part (Part 2). During Part 1, patients were randomized equally to DMF 120 mg once daily (QD), 120 mg three times daily (TID), 240 mg TID, or placebo.
(§2) DEFINE and CONFIRM were 2 years in duration. Patients were randomized equally to DMF 240 mg twice daily (BID), 240 mg TID, or matching placebo.
ENDORSE is a multicenter, parallel-group, dose-blinded extension of DEFINE/CONFIRM with up to 8 additional years of follow-up.
In the Phase 2b study, blood was collected every 4 weeks.
In DEFINE and CONFIRM, blood was collected every 4 weeks for the first 3 months and every 12 weeks thereafter, and within 1 month after study withdrawal or study completion if not continuing in the extension study.
In ENDORSE, blood was collected at baseline and every 12 weeks thereafter
ALCs were graded per Common Terminology Criteria for Adverse Events (CTCAE; Table 9).^9
Data from DEFINE and CONFIRM after subjects switched to alternative MS treatment were excluded.
Data from the 6-month uncontrolled safety extension of the Phase 2b study were included.

MS patients [2] = assay: Serious infections by worst post-baseline CTC grade (Phase 2b, DEFINE, CONFIRM, ENDORSE); assay type: in vivo, human
From the text: The Phase 2b study, […], and CONFIRM were multicenter, randomized, double-blind, placebo-controlled, parallel-group clinical trials of DMF as monotherapy for RRMS. ALCs were graded per Common Terminology Criteria for Adverse Events (CTCAE; Table 9).^9

patients with RRMS [3] = conditions: DEFINE Phase 3 study; after two years of treatment; cited from earlier work
patients with RRMS [4] = assay: Annualized relapse rate / clinical efficacy in DEFINE and CONFIRM; assay type: in vivo, human; conditions: DMF 240 mg BID; for Rate ratio (95% CI) for adjusted ARR for DMF versus placebo: 2 years
From the text: FIGS. 4A-4B depict reduction in ARR at 2 years in DEFINE (FIG. 4A) and CONFIRM (FIG. 4B) in patients in the DMF BID group with lymphopenia (at least 1 ALC less than LLN) or without lymphopenia (all ALCs greater than or equal to LLN) compared with all patients in placebo group. ARR=annualized relapse rate; CI=confidence interval. ^aDMF is delayed-release DMF (also known as gastro-resistant DMF, and as TECFIDERA®). ^bBased on negative binomial regression, adjusted for study, baseline EDSS (≤2.0 vs >2.0), baseline age (<40 vs ≥40), region, and number of relapses in the 1 year prior to study entry.
as §1, §2

healthy volunteer = assay: Healthy volunteer study: aspirin prior to DMF dosing (flushing); assay type: in vivo, human; conditions: 325 mg non-enteric coated aspirin 30 minutes prior to DMF dosing
Protocol: In a specific embodiment, a NSAID (e.g., aspirin) is administered concurrently, before, and/or after administration of the fumarate (e.g., DMF). […] Some subjects who experience flushing with gastrointestinal side effects may reduce the dose to 120 mg DMF BID temporarily. Within a month, the effective dose of 240 mg DMF BID or 240 mg DMF TID should be resumed.

[5] = All ALCs ≥ 500/mm^3 within the first 1 year
[6] = All ALCs ≥ 500/mm^3 within the first 6 months
[7] = All ALCs ≥ 800/mm^3 within the first 1 year
[8] = All ALCs ≥ 800/mm^3 within the first 6 months
[9] = At least 1 ALC < 500/mm^3 (row r11) within the first 1 year
[10] = At least 1 ALC < 500/mm^3 (row r12) within the first 1 year
[11] = At least 1 ALC < 500/mm^3 (row r12) within the first 6 months
[12] = percentage of the number with worst post-baseline count in that grade

## CCCCCCCCCCCCCCCCOCCCOP(=O)(O)CO[C@H](CO)Cn1ccc(N)nc1=O [CMX001, Hexadecyloxypropyl-Cidofovir]
JCV
  Effect on JCV replication: suppress JVC by inhibiting viral DNA replication

## COC(=O)/C=C/C(=O)OC [DMF, dimethyl fumarate]
Patient with MS; MS patient in clinical trial, severe
  Cases of PML: a case of PML
Patient with MS; 3.5 years duration
  Lymphocyte counts of the patient who developed PML: less than 0.5×10^9 /L
MS patients [1]; 9 patients with ALCs < 500 cells/μL for at least 6 months who discontinued or completed the study
  ALCs after discontinuation of treatment (following final dose): ALCs generally increased; also recorded: All 9 patients showed increases in ALCs; also recorded: evidence of ALC improvement
MS patients [1]; [5]
  Patients who subsequently developed ALCs < 500/mm^3 persisting ≥ 6 months at any time, %: (0.7) %
  Patients who subsequently developed ALCs < 500/mm^3 persisting ≥ 6 months at any time, n/N: 16/2409
MS patients [1]; [6]
  Patients who subsequently developed ALCs < 500/mm^3 persisting ≥ 6 months at any time, %: (1.5) %
  Patients who subsequently developed ALCs < 500/mm^3 persisting ≥ 6 months at any time, n/N: 37/2446
MS patients [1]; [7]
  Patients who subsequently developed ALCs < 500/mm^3 persisting ≥ 6 months at any time, %: (0) %
  Patients who subsequently developed ALCs < 500/mm^3 persisting ≥ 6 months at any time, n/N: 0/2050
MS patients [1]; [8]
  Patients who subsequently developed ALCs < 500/mm^3 persisting ≥ 6 months at any time, %: (0.4) %
  Patients who subsequently developed ALCs < 500/mm^3 persisting ≥ 6 months at any time, n/N: 9/2219
MS patients [1]; All ALCs ≥ LLN within the first 1 year of treatment
  Patients who subsequently developed ALCs < 500/mm^3 persisting ≥ 6 months at any time, n/N: 0/1876
MS patients [1]; All ALCs ≥ LLN within the first 6 months of treatment
  Patients who subsequently developed ALCs < 500/mm^3 persisting ≥ 6 months at any time, n/N: 3/2083
MS patients [1]; [9]
  Patients who subsequently developed ALCs < 500/mm^3 persisting ≥ 6 months at any time, %: (17) %
  Patients who subsequently developed ALCs < 500/mm^3 persisting ≥ 6 months at any time, n/N: 47/420
MS patients [1]; At least 1 ALC < 500/mm^3 (row r11) within the first 6 months
  Patients who subsequently developed ALCs < 500/mm^3 persisting ≥ 6 months at any time, %: (10) %
MS patients [1]; [10]
  Patients who subsequently developed ALCs < 500/mm^3 persisting ≥ 6 months at any time, %: (51) %
  Patients who subsequently developed ALCs < 500/mm^3 persisting ≥ 6 months at any time, n/N: 31/61
MS patients [1]; [11]
  Patients who subsequently developed ALCs < 500/mm^3 persisting ≥ 6 months at any time, %: (42) %
  Patients who subsequently developed ALCs < 500/mm^3 persisting ≥ 6 months at any time, n/N: 10/24
MS patients [1]; At least 1 ALC < 500/mm^3 within the first 6 months
  Patients who subsequently developed ALCs < 500/mm^3 persisting ≥ 6 months at any time, n/N: 38/251
MS patients [1]; Total DMF, n = 2513
  Incidence of worst post-baseline ALC CTC grade 0, %: (61) %
  Incidence of worst post-baseline ALC CTC grade 1, %: (9) %
  Incidence of worst post-baseline ALC CTC grade 2, %: (21) %
  Incidence of worst post-baseline ALC CTC grade 3 or 4, %: (7) %
MS patients [1]; among patients treated for ≥ 6 months (N=2,099)
  Patients who experienced ALCs less than 500/mm^3 persisting for greater than or equal to 6 months, %: 2.2%
MS patients [1]; during the first 6 months
  Patients in whom ALCs remained greater than or equal to LLN: 84%
MS patients [1]; during the first year
  Patients in whom ALCs remained greater than or equal to LLN: 76%
MS patients [1]; patients with ALCs < 500/mm^3 persisting ≥ 6 months
  Course of ALCs with continued therapy: generally remained less than 500/mm^3
MS patients [1]; then plateaued, remaining above LLN (910/mm^3) throughout the observation period
  Decrease of mean ALCs during the first year of treatment: approximately 30%
MS patients [2]; interim analysis of Phase 2b, DEFINE, CONFIRM, ENDORSE
  Association of lymphopenia with risk of infections, serious infections, opportunistic infections: not associated with an overall increased risk of infections or serious infections
MS patients [2]; [12]
  Serious infections, worst post-baseline CTC grade 0, %: (3) %
  Serious infections, worst post-baseline CTC grade 1, %: (5.5) %
  Serious infections, worst post-baseline CTC grade 2, %: (4) %
  Serious infections, worst post-baseline CTC grade 3 or 4, %: (3) %
Patients with RRMS [3]
  Clinical relapses, disability progression, lesion number and volume compared with placebo: significantly reduced clinical relapses, accumulation of disability progression, and lesion number and volume
Patients with RRMS [4]; CONFIRM, patients with treatment-associated lymphopenia
  Rate ratio (95% CI) for adjusted ARR for DMF versus placebo: 0.525 (0.365, 0.756)
Patients with RRMS [4]; CONFIRM, patients without lymphopenia
  Rate ratio (95% CI) for adjusted ARR for DMF versus placebo: 0.599 (0.429, 0.835)
Patients with RRMS [4]; DEFINE, patients with treatment-associated lymphopenia
  Rate ratio (95% CI) for adjusted ARR for DMF versus placebo: 0.424 (0.294, 0.611)
Patients with RRMS [4]; DEFINE, patients without lymphopenia
  Rate ratio (95% CI) for adjusted ARR for DMF versus placebo: 0.509 (0.381, 0.681)
Patients with RRMS [4]; DEFINE and CONFIRM
  Reduction in ARR at 2 years versus placebo, patients with versus without lymphopenia: not substantially different

## OC(c1cc(C(F)(F)F)nc2c(C(F)(F)F)cccc12)C1CCCCN1 (centres unmarked) [Mefloquine]
JCV
  Effect on JCV replication: block JCV replication without significant toxicity

## CC(=O)Oc1ccccc1C(=O)O [aspirin]
Healthy volunteer
  Occurrence and severity of flushing: reduce the occurrence and severity of flushing
